From patent publication US7414041B2 (Trustees Of Tufts College, priority 1991, dated 2008)
Read-outs that look alike come from different tables or passages of the source.

Key:
[1] = test system: E. faecalis Tc^r (L) (ATCC9790r/Tet L); type: cell-based; details: for MLC: E. faecalis Tet L; for MIC: Tc^r (L), 1st column
[2] = test system: E. coli Class β Tc^r (DI-209); type: cell-based
[3] = test system: E. coli Tc^s (MI 300-225); test: susceptibility testing MIC/MLC, drug alone; type: cell-based; details: Tc^s
[4] = test system: E. faecalis Tc^s (ATCC9790r); test: susceptibility testing MIC/MLC, drug alone; type: cell-based
[5] = test system: E. coli Class A Tc^r (DI-299); type: cell-based
E. faecalis (Tet M) = details: E. faecalis (Class M)
[6] = test system: E. faecalis Tc^r (M) (ATCC9790r/Tet M); type: cell-based; details: 1st column
S. aureus Tc^s (RN450) = test: susceptibility testing MIC/MLC, drug alone; type: cell-based; details: for MLC: kills 99.9%
S. aureus Tc^r (RN4250) = type: cell-based; details: resistant S. aureus
[7] = target: T1, TET proteins responsible for tetracycline efflux (Class B tetracycline resistance determinant, strain D1-209) (Escherichia coli, UniProt P02980); test: biochemical; design: species or system E. coli
T1 construct: Everted vesicles, to which the TET proteins responsible for tetracycline efflux are attached; endogenous in cells; host or cells: E. coli strain D1-209 (everted membrane vesicles)
T1 sequence (P02980 whole entry): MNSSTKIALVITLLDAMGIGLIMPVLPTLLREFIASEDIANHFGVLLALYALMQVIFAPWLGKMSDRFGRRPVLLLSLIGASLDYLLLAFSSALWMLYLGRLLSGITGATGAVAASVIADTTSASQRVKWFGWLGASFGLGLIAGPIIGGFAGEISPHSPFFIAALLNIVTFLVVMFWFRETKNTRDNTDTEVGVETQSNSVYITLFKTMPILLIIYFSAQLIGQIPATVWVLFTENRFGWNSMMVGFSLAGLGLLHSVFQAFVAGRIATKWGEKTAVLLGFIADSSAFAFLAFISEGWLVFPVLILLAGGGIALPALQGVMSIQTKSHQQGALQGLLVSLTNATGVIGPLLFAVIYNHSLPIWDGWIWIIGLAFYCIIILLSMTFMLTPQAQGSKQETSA

E. faecalis 211 (Tet M) = test: MIC/MLC chart, analog with and without doxycycline; type: cell-based;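 further: broth checkerboard of two-fold drug dilutions, alone and mixed with doxycycline, bacteria near 5×10^5 cells/ml, 18 h incubation at 37 °C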
E. coli D1-299 (Tet A) = type: cell-based;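 further: E. coli at roughly 5×10^5 cells/ml in L broth, analog and doxycycline alone or mixed in two-fold dilutions from 50 to under 1 µg/ml, 18 h at 37 °C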
E. coli ML308 = test: MIC of tetracycline susceptible strains, C5 esters; type: cell-based; details: Escherichia coli; E. coli ML308, alone; read-out: MIC
E. faecalis ATCC 9790 = test: MIC of tetracycline susceptible strains, C5 esters; type: cell-based; details: Enterococcus faecalis, ATCC9790; E. faecalis ATCC 9790, alone; read-out: MIC
S. aureus 450 = test: MIC of tetracycline susceptible strains, C5 esters; type: cell-based; details: Staphylococcus aureus; S. aureus 450, alone; read-out: MIC
[8] = analog .195 μg/ml + doxycycline 1.56 μg/ml
[9] = analog .195 μg/ml + doxycycline 3.12 μg/ml
[10] = analog .195 μg/ml + doxycycline 6.25 μg/ml
[11] = analog .39 μg/ml + doxycycline 1.56 μg/ml
[12] = analog .39 μg/ml + doxycycline 3.12 μg/ml
[13] = analog alone .195 μg/ml (Analog Control)
[14] = analog alone .39 μg/ml (Analog Control)
[15] = uptake at 2.5 minutes, about 4 μM 3H-tetracycline, read-out: IC50

6-deoxy-13-(benzyl mercapto) tetracycline
MLC [1]: 8 ± 2 µg/mL
MIC [1]: 0.76 ± 0.26 µg
MIC ([2]; 1st column): 30 ± 0.26 µg
MIC ([2]; 2nd column): 60 ± 10 µg
MIC ([3]; 1st column): 16 ± 6 µg
MIC ([3]; 2nd column): 26 ± 6 µg
MIC ([4]; 1st column): 0.6 ± 0.25 µg
MIC ([4]; 2nd column): 8 ± 0.26 µg
MIC ([5]; 1st column): 46 ± 20 µg
MIC ([5]; 2nd column): 160 ± 60 µg
synergistic activity with tetracycline (E. faecalis (Tet M)): little, if any synergistic activity
MIC [6]: 3.6 ± 1 µg
MIC (S. aureus Tc^s (RN450)): 0.2 ± 0.1 µg
MLC (S. aureus Tc^s (RN450)): 10 ± 2 µg

6-deoxy-13-(cyclohexyl mercapto) tetracycline
MLC [1]: 8 ± 2 µg/mL
MIC [1]: 1.6 ± 0.6 µg
MIC ([3]; 1st column): 60 ± 10 µg
MIC ([3]; 2nd column): 120 µg
MIC ([4]; 1st column): 1.26 ± 0.26 µg
MIC ([4]; 2nd column): 8 µg
MIC ([5]; 1st column): 100 ± 0.26 µg
MIC ([5]; 2nd column): >200 µg
synergistic activity with tetracycline (E. faecalis (Tet M)): little, if any synergistic activity
MIC [6]: 2.6 ± 0.6 µg
MIC (S. aureus Tc^s (RN450)): 2.5 ± 1.25 µg
MLC (S. aureus Tc^s (RN450)): 10 ± 5 µg

6-deoxy-13-(cyclopentyl mercapto) tetracycline
MLC (S. aureus Tc^r (RN4250)): 6 ± 2 µg/mL
MIC [1]: 1 ± 0.6 µg
MIC ([2]; 1st column): 60 ± 40 µg
MIC ([2]; 2nd column): 100 ± 60 µg
MIC ([3]; 1st column): 20 µg
MIC ([3]; 2nd column): 60 µg
MIC ([4]; 1st column): 1 ± 0.26 µg
MIC ([4]; 2nd column): 10 ± 4 µg
MIC ([5]; 1st column): 40 ± 0.26 µg
MIC ([5]; 2nd column): 60 µg
synergistic activity with tetracycline (E. faecalis (Tet M)): little, if any synergistic activity
MIC [6]: 3 ± 1 µg
MIC (S. aureus Tc^s (RN450)): 1 µg
MLC (S. aureus Tc^s (RN450)): 5 µg

CCCCCCCC(=O)O[C@H]1C2C(=C(O)C3(O)C(=O)C(C(N)=O)=C(O)[C@@H](N(C)C)C13)C(=O)c1c(O)cccc1C2C (some centres unmarked) [Cmpd 4]
IC50 [7]: 9.3 µM

CCC(=O)OC1C2C(=C(O)C3(O)C(=O)C(C(N)=O)=C(O)C(N(C)C)C13)C(=O)c1c(O)cccc1C2CSC1CCCC1 (centres unmarked) [Cmpd 5, 13-cyclopentylthio-5-proprionate-6-deoxy tetracycline]
MIC/MLC chart: growth or killing (E. faecalis 211 (Tet M); [8]): +
MIC/MLC chart: growth or killing (E. faecalis 211 (Tet M); [9]): +
MIC/MLC chart: growth or killing (E. faecalis 211 (Tet M); [10]): +
MIC/MLC chart: growth or killing (E. faecalis 211 (Tet M); [11]): ◯
MIC/MLC chart: growth or killing (E. faecalis 211 (Tet M); [12]): ◯
MIC/MLC chart: growth or killing (E. faecalis 211 (Tet M); [13]): +
MIC/MLC chart: growth or killing (E. faecalis 211 (Tet M); [14]): ◯
MIC/MLC chart: growth or killing (E. coli D1-299 (Tet A); analog 1.56 μg/ml + doxycycline 1.55 μg/ml): +
MIC/MLC chart: growth or killing (E. coli D1-299 (Tet A); analog 1.56 μg/ml + doxycycline 3.1 μg/ml): +
MIC/MLC chart: growth or killing (E. coli D1-299 (Tet A); analog 1.56 μg/ml + doxycycline 6.2 μg/ml): +
MIC/MLC chart: growth or killing (E. coli D1-299 (Tet A); analog 3.12 μg/ml + doxycycline 1.53 μg/ml): +
MIC/MLC chart: growth or killing (E. coli D1-299 (Tet A); analog 3.12 μg/ml + doxycycline 3.05 μg/ml): +
MIC/MLC chart: growth or killing (E. coli D1-299 (Tet A); analog 3.12 μg/ml + doxycycline 6.1 μg/ml): +
MIC/MLC chart: growth or killing (E. coli D1-299 (Tet A); analog 6.25 μg/ml + doxycycline 3.0 μg/ml): +
MIC/MLC chart: growth or killing (E. coli D1-299 (Tet A); analog 6.25 μg/ml + doxycycline […]): +
MIC/MLC chart: growth or killing (E. coli D1-299 (Tet A); analog 12.5 μg/ml + doxycycline 2.8 μg/ml): +
MIC/MLC chart: growth or killing (E. coli D1-299 (Tet A); analog 12.5 μg/ml + doxycycline […]): +
MIC/MLC chart: growth or killing (E. coli D1-299 (Tet A); analog 25 μg/ml + doxycycline 2.4 μg/ml): +
MIC/MLC chart: growth or killing (E. coli D1-299 (Tet A); analog 25 μg/ml + doxycycline […]): +
MIC/MLC chart: growth or killing (E. coli D1-299 (Tet A); analog 50 μg/ml + doxycycline 1.56 μg/ml): +
MIC/MLC chart: growth or killing (E. coli D1-299 (Tet A); analog 50 μg/ml + doxycycline .78 μg/ml): +
MIC/MLC chart: growth or killing (E. coli D1-299 (Tet A); [8]): +
MIC/MLC chart: growth or killing (E. coli D1-299 (Tet A); [9]): +
MIC/MLC chart: growth or killing (E. coli D1-299 (Tet A); [10]): +
MIC/MLC chart: growth or killing (E. coli D1-299 (Tet A); analog .195 μg/ml + doxycycline 12.5 μg/ml): +
MIC/MLC chart: growth or killing (E. coli D1-299 (Tet A); analog .195 μg/ml + doxycycline 25.0 μg/ml): +
MIC/MLC chart: growth or killing (E. coli D1-299 (Tet A); [11]): +
MIC/MLC chart: growth or killing (E. coli D1-299 (Tet A); [12]): +
MIC/MLC chart: growth or killing (E. coli D1-299 (Tet A); analog .39 μg/ml + doxycycline 6.25 μg/ml): +
MIC/MLC chart: growth or killing (E. coli D1-299 (Tet A); analog .39 μg/ml + doxycycline 12.5 μg/ml): +
MIC/MLC chart: growth or killing (E. coli D1-299 (Tet A); analog .39 μg/ml + doxycycline 24.9 μg/ml): ↓
MIC/MLC chart: growth or killing (E. coli D1-299 (Tet A); analog .78 μg/ml + doxycycline 1.56 μg/ml): +
MIC/MLC chart: growth or killing (E. coli D1-299 (Tet A); analog .78 μg/ml + doxycycline 3.12 μg/ml): +
MIC/MLC chart: growth or killing (E. coli D1-299 (Tet A); analog .78 μg/ml + doxycycline 6.23 μg/ml): +
MIC/MLC chart: growth or killing (E. coli D1-299 (Tet A); analog .78 μg/ml + doxycycline 12.4 μg/ml): ◯
MIC/MLC chart: growth or killing (E. coli D1-299 (Tet A); analog alone 1.56 μg/ml (Analog Control)): +
MIC/MLC chart: growth or killing (E. coli D1-299 (Tet A); analog alone 3.12 μg/ml (Analog Control)): +
MIC/MLC chart: growth or killing (E. coli D1-299 (Tet A); analog alone 6.25 μg/ml (Analog Control)): +
MIC/MLC chart: growth or killing (E. coli D1-299 (Tet A); analog alone 12.5 μg/ml (Analog Control)): +
MIC/MLC chart: growth or killing (E. coli D1-299 (Tet A); analog alone 25.0 μg/ml (Analog Control)): +
MIC/MLC chart: growth or killing (E. coli D1-299 (Tet A); analog alone 50.00 μg/ml (Analog Control)): +
MIC/MLC chart: growth or killing (E. coli D1-299 (Tet A); [13]): +
MIC/MLC chart: growth or killing (E. coli D1-299 (Tet A); [14]): +
MIC/MLC chart: growth or killing (E. coli D1-299 (Tet A); analog alone .78 μg/ml (Analog Control)): +
MLC in combination (E. coli D1-299 (Tet A); with 5.9 μg/ml doxycycline (Chart 8A)): 6.25 µg/mL
MIC (E. coli ML308): 20 µg/mL
MIC (E. faecalis ATCC 9790): 0.4 µg/mL
IC50 [7]: 3.3 µM
MIC (S. aureus 450): 0.4 µg/mL

CC1c2cccc(O)c2C(=O)C2=C(O)C3(O)C(=O)C(C(N)=O)=C(O)[C@@H](N(C)C)C3[C@@H](OC(=O)CCC(=O)O)C21 (some centres unmarked) [Cmpd 6]
IC50 [7]: 2 µM

CC1c2cccc(O)c2C(=O)C2=C(O)C3(O)C(=O)C(C(N)=O)=C(O)[C@@H](N(C)C)C3[C@@H](OCCCN)C21 (some centres unmarked) [Cmpd 7]
IC50 [7, 15]: 6.4 µM

CN(C)[C@@H]1C(O)=C(C(N)=O)C(=O)C2(O)C(O)=C3C(=O)c4c(O)cccc4C(CSC4CCCC4)C3[C@H](OC(=O)C3CCCCC3)C12 (some centres unmarked) [Cmpd 9]
IC50 [7]: > 30 µM

CN(C)[C@@H]1C(O)=C(C(N)=O)C(=O)C2(O)C(O)=C3C(=O)c4c(O)cccc4C(CSC4CCCC4)C3[C@H](OC(=O)C3CCCC3)C12 (some centres unmarked) [Cmpd 10]
IC50 [7, 15]: > 30 µM

C=C1c2cccc(O)c2C(=O)C2=C(O)C3(O)C(=O)C(C(N)=O)=C(O)C(N(C)C)C3C(OC(=O)C3CC3)C12 (centres unmarked) [Cmpd 11, 5 cyclopropanoate methacycline]
IC50 [7]: 9.4 µM
